Experiments:
[1] = Short-term pharmacokinetics of LaKe in rats (BHB and lactate levels); assay type: in vivo, Sprague–Dawley rats; conditions: 4.5 g/kg oral
Experimental: (§1) Male Sprague–Dawley rats (300–350g, Taconic, Ry, Denmark) were kept for acclimatization at a constant temperature of 23 °C with a 12 h light-dark cycle and with unlimited access to food and water. All animal handling was in accordance with national guidelines in Denmark and the guidelines from the Directive 2010/63/EU of the European Parliament on the protection of animals used for scientific purposes, and all experiments conformed to Danish Law (Act. No. 1306 of 23/11/2007). The experimental protocol was approved by the Danish Animal Expectorate (2018-15-0201-01475).
The rats were randomly selected to receive either LaKe (n = 8) or placebo (n = 8).
Rats were anesthetized in an induction chamber with 8% Sevoflurane (Sevorane, AbbVIE A/S, Copenhagen, Denmark) mixed with oxygen saturated atmospheric air (flow: 2.0 L/min). Upon achieved anesthesia, the rats were intubated and connected to a mechanical ventilator (Ugo Basile 7025 rodent ventilator, Comerio, Varese, Italy) with an adjusted flow of 1.0L/min with 3.5% Sevoflurane. Body temperature was kept at a constant of 37 ± 1 °C with a temperature probe (UNO, Zevenaar, Holland). A PTFE-coated flexible orogastric tube (Fuchigami, Japan) was placed, and the rat was left for stabilization for 15 min. […]
Short term pharmacokinetics of LaKe in rats – Detailed protocols for LC-MS/MS and FFA analyses BHB quantification by LC-MS/MS […]

[2] = Hepatocyte stability of LaKe, human; assay type: in vitro ADME; conditions: cryopreserved hepatocytes
[3] = test system: N-L-lactoyl-phenylalanine (Lac-Phe); assay: Plasma N-L-lactoyl-phenylalanine after oral LaKe in rats; assay type: in vivo, Sprague–Dawley rats; conditions: 4.5 g/kg oral
Experimental: as §1
(§2) The rats were randomly selected to receive either LaKe (n = 8) or placebo (n = 8). […]
(§3) Concentrations of non-esterified free fatty acids (FFA) were measured using a NEFA-HR(2) kit (Wako, Chemicals Gmbh, Germany). Absorbance was measured by spectrometry (PHERAstar FS, BMG LABTECH, […]
(§4) Quantification of N-L-lactoyl phenylalanine (Lac-Phe) by LC-MS/MS […]
(§5) Pure calibrant samples were prepared from an authentic standard compound (N-L-lactoyl phenylalanine), using the plasma sample preparation method at concentrations equivalent to […] in the original sample. The lower limit of quantification for N-L-lactoyl phenylalanine (Lac-Phe) quantification was estimated to 10 nM. […]

[4] = test system: plasma free fatty acids (FFA); assay: Plasma free fatty acids after oral LaKe in rats; assay type: in vivo, Sprague–Dawley rats; conditions: 4.5 g/kg oral
Experimental: as §1, §2, §3, §4, §5

Question: Which “BHB levels at 120 min” value [1] does the source give for `CC(O)CCOC(=O)C(C)O` (stereo not drawn) [LaKe, 3-hydroxybutyl 2-hydroxypropanoate] here?
Answer: Its value is “remained elevated”.

Question: And the “lactate levels at 120 min” value [1]?
Answer: Its value is “largely back at the baseline level”.

Question: And the half-life at 0.1 mg/mL [2]?
Answer: The half-life at 0.1 mg/mL was under 30 min.

Question: What about the “change in plasma Lac-Phe” value [3] of the same molecule?
Answer: The value was “increase”.

Question: And the “maximum suppression of FFA levels” value ([4]; 75 min time point, compared to vehicle)?
Answer: The value was over 40%.

Question: And the “change in plasma free fatty acids compared to vehicle control” value ([4]; from 15 min until 105 min)?
Answer: Its value is “decrease”.

From PMC11403612, “Preparation and Preclinical Characterization of a Simple Ester for Dual Exogenous Supply of Lactate and Beta-hydroxybutyrate” (Journal of Agricultural and Food Chemistry, 2024)
